# Legend:
# LV, SP and LNs = experiment: Whole organ transcriptome across organs (adjuvant gene space): gene responses and adjuvant grouping; type: in vivo, C57BL/6 mice
# [1] = tested on: adjuvant-associated biological themes in LV, SP, LN; conditions: LV, ID
# How it was run: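 Per-mouse whole-organ transcriptomes; genes with eij/ei(c)>2.0 tested for theme enrichment via TargetMine (GO, KEGG, Reactome, others), Fisher's exact test, Holm-Bonferroni correction. Themes shared by all three mice kept at p<0.05, using the smallest p. Score per adjuvant-associated term = Σ−log(p) of matching themes.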
substance,measurement,setting,value
heptanoyl-γ-D-glutamyl-(L)-meso-diaminopimelyl-(D)-alanine [FK565],"distribution/strength of gene responses between local LNs and systemic organs (LV, SP)","LV, SP and LNs; 6 h after i.d. (local) administration",greater responses in LV and SP than in LNs
same,adjuvant group (cluster) within the adjuvant gene space,"LV, SP and LNs; hierarchical clustering, LV, SP and/or LNs",G3
same,"IFN alpha, GO annotation line 1 of 5",[1],4.54
same,"IFN alpha, GO annotation line 2 of 5",[1],0
same,IFN alpha: cellular response to interferon-alpha,[1],0
same,IFN alpha: positive regulation of interferon-alpha production,[1],0
same,IFN alpha: regulation of interferon-alpha production,[1],0
same,IFN beta: cellular response to interferon-beta,[1],9.65
same,IFN beta: interferon-beta production,[1],0
same,IFN beta: positive regulation of interferon-beta production,[1],0
same,IFN beta: regulation of interferon-beta production,[1],0
same,IFN beta: response to interferon-beta,[1],17.3
same,IFN gamma: cellular response to interferon-gamma,[1],0
same,IFN gamma: interferon-gamma production,[1],0
same,IFN gamma: regulation of interferon-gamma production,[1],0
same,IFN gamma: response to interferon-gamma,[1],11
same,"NF-kappa B signaling pathway, GO annotation line 1 of 4",[1],19.8
same,"NF-kappa B signaling pathway, GO annotation line 3 of 4",[1],3.05
same,"NF-kappa B signaling pathway, GO annotation line 4 of 4",[1],5.82
same,TNF signaling pathway,[1],30.9
same,"adaptive immune response, GO annotation line 1 of 5",[1],8.99
same,"adaptive immune response, GO annotation line 2 of 5",[1],8.71
same,"adaptive immune response, GO annotation line 3 of 5",[1],3.56
same,"adaptive immune response, GO annotation line 4 of 5",[1],0
same,"adaptive immune response, GO annotation line 5 of 5",[1],0
same,"apoptosis, GO annotation line 1 of 8",[1],15.2
same,"apoptosis, GO annotation line 2 of 8",[1],13
same,"apoptosis, GO annotation line 3 of 8",[1],19.9
same,"apoptosis, GO annotation line 4 of 8",[1],13.9
same,"apoptosis, GO annotation line 5 of 8",[1],6.58
same,"apoptosis, GO annotation line 6 of 8",[1],13.2
same,"apoptosis, GO annotation line 7 of 8",[1],0
same,"apoptosis, GO annotation line 8 of 8",[1],8.33
same,"cell death, GO annotation line 1 of 9",[1],21.7
same,"cell death, GO annotation line 2 of 9",[1],16.4
same,"cell death, GO annotation line 3 of 9",[1],15.7
same,"cell death, GO annotation line 4 of 9",[1],14
same,"cell death, GO annotation line 5 of 9",[1],12.9
same,"cell death, GO annotation line 6 of 9",[1],7.1
same,"cell death, GO annotation line 7 of 9",[1],7.29
same,"cell death, GO annotation line 8 of 9",[1],0
same,"cell death, GO annotation line 9 of 9",[1],0
same,"chemokine, GO annotation line 1 of 4",[1],0
same,"chemokine, GO annotation line 2 of 4",[1],0
same,"chemokine, GO annotation line 3 of 4",[1],0
same,"chemokine, GO annotation line 4 of 4",[1],0
same,"chemotaxis, GO annotation line 1 of 11",[1],16.1
same,"chemotaxis, GO annotation line 2 of 11",[1],0
same,"chemotaxis, GO annotation line 4 of 11",[1],5.48
same,"chemotaxis, GO annotation line 5 of 11",[1],0
same,"chemotaxis, GO annotation line 6 of 11",[1],5.83
same,"chemotaxis, GO annotation line 7 of 11",[1],6.49
same,"chemotaxis, GO annotation line 8 of 11",[1],0
same,"chemotaxis, GO annotation line 9 of 11",[1],0
same,"chemotaxis, GO annotation line 10 of 11",[1],0
same,"chemotaxis, GO annotation line 11 of 11",[1],0
same,"cytokine, GO annotation line 1 of 17",[1],37.8
same,"cytokine, GO annotation line 2 of 17",[1],32.6
same,"cytokine, GO annotation line 3 of 17",[1],23.6
same,"cytokine, GO annotation line 4 of 17",[1],17.1
same,"cytokine, GO annotation line 5 of 17",[1],30.2
same,"cytokine, GO annotation line 6 of 17",[1],27.5
same,"cytokine, GO annotation line 7 of 17",[1],8.69

# Source: patent US20230021483A1, “[…] […] METHOD AND CLASSIFICATION OF PHARMACEUTICAL COMPONENTS BY USING TRANSCRIPTOMES” (National Institutes of Biomedical Innovation, Health and …, priority 2016, published 2023)
